Values quoted from earlier work, collected in US20050009897A1, “Method of treatment” (priority 2001, published 2005).
Where two headings read alike, the source gives them in different places.

Experiments:
[1] = nondiabetic hypertensive individuals; cited from earlier work
[2] = compared with other β-blockers, angiotensin converting enzyme inhibitors or calcium channel blockers; cited from earlier work
[3] = 45 hypertensive diabetic patients, cited from earlier work
[4] = hypertensive patients; cited from earlier work

SMILES	insulin sensitivity [1]	lowering blood pressure [2]	HbA1c [3]	fasting glucose [3]	fasting insulin [3]	glucose disposal [3]	insulin sensitivity [3]	lipid peroxidation [3]	glycemic control [4]	antihypertensive effect ([3]; relative to carvedilol)
COc1ccccc1OCCNCC(O)COc1cccc2[nH]c3ccccc3c12 (stereo not shown) [carvedilol]	increases	as effective as other β-blockers, angiotensin converting enzyme inhibitors or calcium channel blockers	decreased	decreased	decreased	increased	increased	decreased		
CC(C)NCC(O)COc1ccc(CC(N)=O)cc1 (stereo not shown) [atenolol]				increased	increased	decreased	decreased	no effect	significantly reduce	equivalent
CC(C)NCC(O)COc1cccc2ccccc12 (stereo not shown) [propranolol]									significantly reduce	
